# Assay results reported in patent US20230173071A1, “TREATMENT OF MYOPIA AND OTHER OCULAR CONDITIONS USING SINGLET OXYGEN GENERATED FROM DYES ACTIVATED BY NEAR-INFRARED LIGHT” (California Institute of Technology, priority 2018, published 2023).
# Entries after “also recorded” stand apart in the source; their conditions may differ.
# Tests used:
# [1] = Singlet oxygen generation by DPBF decay (UV-Vis), 810 nm LED; type: physicochemical
# Text: To evaluate the efficiency of singlet oxygen generation by ICG and an analog (IR-820) in vitro, the singlet oxygen generation was monitored. 1,3-diphenylisobenzofuran (DPBF), a compound that decays in the presence of singlet oxygen, and singlet oxygen sensor green (SOSG), a dye that increases fluorescence in the presence of singlet oxygen, were used as markers to indicate singlet oxygen generation by ICG and IR-820. […] For SOSG analysis, the fluorescence turn-on in H2O and D2O was compared to that observed when riboflavin—an FDA approved dye used in conjunction with UV light to treat keratoconus (corneal expansion)—was usedIn all cases, an increase in fluorescence emission at 525 nm was observed (using a 488nm excitation).
# [2] = Dye stability observations
# Experimental: Unfortunately, IR-1061-pyridinium was unatable in the presence of water. In an attempt to overcome the susceptibility of IR-1061-pyridinium to hydration, the pyridine charge-transfer partner was exchanged for acridine, which was expected to shield the dye from water addition due to its additional bulk.
# To confirm that the process was singlet oxygen-mediated, irradiation of a freeze-pump-thawed sample—devoid of oxygen—was carried out. […] To evaluate the scope of the reaction, the dye was irradiated in an array of deuterated solvents.
# [3] = Irradiation of IR-1061 dyes with DPBF, 980 nm or 1064 nm laser; type: physicochemical; settings: for DPBF signal relative to a dark control: 30 minutes of irradiation, 1 W cm^-2 980 nm laser
# Experimental: Initial work was done using a set of IR-1061 derivatives: cited herein as IR-1061-pyridine and IR-1061-pyridinium.
# Like IR-1061-pyridinium, IR-1061-acridinium was irradiated in CDCl3 in the presence of DPBF using a 1 W cm^−2 980 nm laser (FIG. 15(A)). As a comparison, a similar irradiation was carried out using a 1.8 W cm^−2 1064 nm laser (FIG. 16). The collective effect of irradiation wavelength and conditions are seen in FIGS. 15(A-C), and FIGS. 16-18.
# [4] = as above; type: physicochemical
# [5] = Dye solubility observations; type: physicochemical; settings: counterion exchanged from BF4- to BarF-
# Experimental: ICG is a NIR-absorbing heptamethine dye that has the potential of generating singlet oxygen upon irradiation and has a λmax ranging from 780-810 nm depending on the context. […] BAC along with other cationic surfactants (alkyl ammonium salts, polyoxyethylene alkyl amines, amide linked alkyl amines, alkyl imidazolines, etc.) aid in the solubility of the dye in aqueous media. […] The standard formulation used in these studies consisted of 0.05 to 5.0 mg/mL ICG and 0.01% to 0.001% BAC in solution. D2O was selected as the solvent to increase the lifetime of singlet oxygen and therefore the crosslinking capability of the species. […] Fluorinated solvents (perfluorohexane, perfluorotripentylamine, etc.) are also of interest due to their ability to dissolve more oxygen and their robust inertness.
# porcine sclera = settings: treated with UV light and riboflavin; previous work; cited from earlier work
# [6] = Singlet oxygen sensor green (SOSG) fluorescence measurements; type: physicochemical; settings: dye 0.1 mg/mL; 3 mW at 365 nm; 488 nm excitation
# Experimental: Singlet oxygen sensor green (SOSG) is a common reagent for measuring singlet oxygen generation in aqueous systems. The marker becomes more fluorescent as singlet oxygen is generated. All time measurements were done in triplicate (100 μL aliquots from an irradiated sample). A Molecular Devices Flexstation was used to read out the fluorescence measurements with the excitation/emission at 488/525 nm.
# SOSG fluorescence turn on was initially measured using riboflavin as a point of comparison for the efficacy of ICG irradiations. Measurements used a dye concentration of 0.1 mg/mL and the irradiation the parameters (3 mW at 365 nm) used in the FDA approved procedure for keratoconus (corneal expansion). The mixture was stirred during irradiation.
# Stocks of the ICG formulations (both H2O and D2O) were made to be 1 mg/mL ICG and 0.01% benzalkonium chloride (BAC). These were diluted to a dye concentration of 0.1 mg/mL for the SOSG tests with no adjustments for the BAC. The sample was irradiated with 810 nm light at 200 mW and stirred throughout the irradiation.
# [7] = deuterated polar aprotic solvents, such as DMSO
# [8] = water (D2O with 7.5% DMSO-D6), 980 nm
smiles,measurement,setting,value
CC1(C)C(=CC=C2CCCC(C=CC3=[N+](CCCCS(=O)(=O)[O-])c4ccc5ccccc5c4C3(C)C)=C2Cl)N(CCCCS(=O)(=O)[O-])c2ccc3ccccc3c21.[Na+] [IR-820],DPBF decay / singlet oxygen generation in D2O compared to H2O,[1]; 810 nm LED,increase; also recorded: faster decay rate
same,DPBF signal decay when irradiated,"[1]; D2O, 810 nm LED",marked increase in the signal decay
same,DPBF signal decay when irradiated,"[1]; H2O, 810 nm LED",marked increase in the signal decay
same,singlet oxygen generation (DPBF analysis),[1]; in H2O or D2O,singlet oxygen generation was observed
C(/C=C1\CCCC(/C=C/c2cc(-c3ccccc3)[s+]c(-c3ccccc3)c2)=C1[n+]1c2ccccc2cc2ccccc21)=C1C=C(c2ccccc2)SC(c2ccccc2)=C1 [IR-1061-acridinium],stability to strong acids and bases,[2]; prior to irradiation,dye instability and bleaching prior to irradiation
same,dye and DPBF signal during irradiation,[3]; 1064 nm in CDCl3,Rapid bleaching of both the dye and DPBF signal
same,DPBF signal,"[3]; freeze-pump-thawed CDCl3 (devoid of oxygen), 980 nm",no change
same,singlet oxygen generation,"[4]; deuterated nonpolar solvents, such as toluene",no singlet oxygen generation was observed
same,DPBF degradation,[4]; [7],decreased
same,photobleaching of the dye,[4]; [7],photobleaching
same,DPBF degradation rates,[4]; [8],comparable to those seen in chloroform
same,photobleaching of the dye,[4]; [8],high levels
ClC1=C(/C=C/c2cc(-c3ccccc3)[s+]c(-c3ccccc3)c2)CCC/C1=C\C=C1C=C(c2ccccc2)SC(c2ccccc2)=C1 [IR-1061],DPBF signal relative to a dark control,[3],no significant changes
C(/C=C1\CCCC(/C=C/c2cc(-c3ccccc3)[s+]c(-c3ccccc3)c2)=C1[n+]1c2ccccc2cc2ccccc21)=C1C=C(c2ccccc2)SC(c2ccccc2)=C1 [IR-1061-Acridinium BArF],solubility,[5],increase
same,photosensitization capability,[3]; counterion exchanged from BF4- to BarF-,marked decrease
C(/C=C1\CCCC(/C=C/c2cc(-c3ccccc3)[s+]c(-c3ccccc3)c2)=C1[n+]1ccccc1)=C1C=C(c2ccccc2)SC(c2ccccc2)=C1 [IR-1061-pyridinium],stability in the presence of water,[2],unatable
same,DPBF signal relative to a dark control,[3],significant decrease
Cc1cc2nc3c(=O)[nH]c(=O)nc-3n(C[C@H](O)[C@H](O)[C@H](O)CO)c2cc1C [riboflavin],change in Young's Modulus of pig sclera,porcine sclera,minimal change
same,SOSG fluorescence emission at 525 nm,[6],increase
